Assay [1] relates to GA3 (DNA, G4) AGGGAAAAGGGGAGGGAAAAGGGGA
As to the kind of experiment: UV-Vis melting, 295 nm. The note with it: 100 mM K+; 10 mM lithium cacodylate pH 7.2; 2 equivalents NMM, ~4 μM DNA.

Assay [2] relates to GA2 (DNA, G4) GAGGGAGGGAAAAGGGGAGGGA
As to the kind of experiment: UV-Vis titration, SVD. The note with it: 5 mM K+, 95 mM Li+; 10 mM lithium cacodylate pH 7.2, 20 °C; 1:1 model.

Assay [3] shares this test system. As to the kind of experiment: UV-Vis melting, 295 nm. The note with it: 100 mM K+; 10 mM lithium cacodylate pH 7.2; 2 equivalents NMM, ~4 μM DNA.
Assay [4] relates to GA1 (DNA, G4) GAGGGAGGGAGGGAAAAGGGGA
As to the kind of experiment: UV-Vis melting, 295 nm. Conditions: 100 mM K+; 10 mM lithium cacodylate pH 7.2; 2 equivalents NMM, ~4 μM DNA.

Drawing on publication PMC9812923 (2022), this text covers ΔTm and Ka for one compound.

As for `CCc1c(C)c2cc3nc(cc4nc(cc5c(CC)c(C)c(cc1[nH]2)n5C)C(C)=C4CCC(=O)O)C(CCC(=O)O)=C3C`, the ΔTm in assay [1] is 7.0 ± 1.7 °C; in assay [3] it was 13.1 ± 0.8 °C; in assay [4], 14.6 ± 1.1 °C. This compound had a Ka in assay [2] of 1.4 ± 0.1 µM⁻¹.
